This is an account of results in publication PMC8333425, “Discovery of a dual Ras and ARF6 inhibitor from a GPCR endocytosis screen” (Nature Communications, 2021).

SMILES strings stand for the structures. “And” between values parts separate entries of the source, which are not always exact repeats. Identical values can stand only once.

The target in test [1] is T1, Gαq (Homo sapiens, UniProt P50148).
T1 construct: expressed in transfected cells; host or cells: HEK293SL
The experiment in a line: Gαq BRET sensor, AT1R-mediated. The format is cell-based. As for the experimental part:
HEK293SL cells were seeded at a density of 7.5 × 10^5 cells per 100-mm dish and 24 h later, transiently transfected as such. For receptor internalization experiments, cells were transfected with 0.12 μg AT1R-RlucII, B2R-RlucII, or β2AR-RlucII and 0.48 μg of either rGFP-CAAX (to assess removal from the PM) or rGFP-FYVE (to assess accumulation in the endosomes). For β-arrestin recruitment assays, cells were transfected with 0.48 μg of receptor-YFP along with 0.12 μg of β-arrestin-RlucII. For β-arrestin/AP-2 binding experiments, cells were transfected with 1 μg Flag-AT1R, 1 μg β2-Adaptin-YFP, and 0.12 μg β-arrestin2-RlucII. For G protein activation, cells were transfected with 3 μg of sp-Flag-AT1R along with either 4.5 μg of the Gαq-polycistronic BRET sensor or 0.24 μg of the Gαi3-RlucII and 0.6 μg of GFP10-Gγ2 and Gβ1 sensors or 0.12 μg PKN-RBD-RlucII and 0.48 μg of rGFP-CAAX. For PKC activation, cells were transfected with 3 μg of sp-Flag-AT1R and 0.18 μg of the PKC sensor. For GTPase activation experiments, cells were transfected with 1 μg Flag-AT1R, 0.48 μg of rGFP-CAAX, and either 0.12 μg of GGA3-PBD-RlucII, PAK-CRIB-RlucII or Raf-RBD-RlucII. For biosensor validation experiments, cells were additionally transfected with 500 ng Flag-K-Ras-WT, Flag-K-Ras-G12V, Flag-K-Ras-SOS-CAAX, HA-ARF6-WT, HA-ARF6-T27N, Myc-Rac1-WT, Myc-Rac1-Q61L or Myc-Rac1-T17N. For PI3K/Akt activation experiments, cells were transfected with 0.48 μg of rGFP-CAAX and 0.12 μg of Akt (PH)-RlucII. After 18 h of transfection, the media was replaced and cells were divided for subsequent experiments. Cells were detached and seeded onto poly-L-ornithine-coated 96-well flat white bottom plates (BrandTech Scientific) at a density of 2.5 × 10^4 cells per well in media. […] For kinetics of β-arrestin recruitment or β-arrestin binding to receptor and AP-2 experiments, cells were serum starved for 30 min, pretreated with 21 (50 µM) or Barbadin (100 µM) for 30 min, stimulated with 100 nM AngII or 1 µM BK and BRET signals were monitored at indicated times using a Victor X Light plate reader (PerkinElmer). […] The BRET ratio was determined by calculating the ratio of the light emitted by YFP over the light emitted by the RlucII. […] For the kinetics of GTPase and PI3K/Akt activation, cells were serum starved, pretreated with 21 (50 µM) or Wortmannin (200 nM) for 30 min, stimulated with ligand (100 nM AngII or 100 ng/ml EGF) and BRET signals were monitored at indicated times. […] BRET signals were monitored using a Synergy2 (BioTek) microplate reader and coelenterazine 400a (final concentrations of 5 µM) added 3–5 min prior to BRET measurements. […] The BRET ratio was determined by calculating the ratio of the light emitted by rGFP/GFP10 over the light emitted by the RlucII.

The target of test [2] is T2, K-Ras-Y32A (Homo sapiens, UniProt P01116, Y32A).
T2 construct: GST (N); FLAG (N); host or cells: E. coli BL21
T2 sequence (P01116 1-188 isoform P01116-2 Y32A): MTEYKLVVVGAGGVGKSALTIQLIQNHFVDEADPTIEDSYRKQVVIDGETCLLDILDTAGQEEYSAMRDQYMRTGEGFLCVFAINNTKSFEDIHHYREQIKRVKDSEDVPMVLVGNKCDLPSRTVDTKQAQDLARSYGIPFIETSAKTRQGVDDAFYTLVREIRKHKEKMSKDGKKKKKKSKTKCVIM
The experiment in a line: In vitro mant-GTP exchange assay, purified K-Ras-Y32A with SOS1. Format: biochemical. The conditions noted are these: 50 μM. As for the experimental part: Ras activity was assessed in a 384-well black bottom plate using the mant-GTP exchange factor assay that measures the uptake of the fluorescent nucleotide analog N-methylanthraniloyl-GTP (mant-GTP) into GTPases. For Ras activation, 2X exchange buffer, 1.66 μg of purified pGEX-6P-1-H-Ras or pGEX-6P-1-K-Ras-WT or pGEX-6P-1-K-Ras-Y32A were added per well in presence of DMSO, different concentrations of Rasarfin (as indicated) or 50 µM of compounds 21.4, 21.7, or 21.8. Using the Infinite 200 Pro plate reader (Tecan) with filters set at 360 nm and 440 nm for detecting the excitation and emissions, respectively, and temperature set at 20 °C, 5 readings were recorded every 5 s before the addition of either H2O, 40 mM EDTA or 0.66 μg purified SOS1. The fluorescence of mant-GTP uptake was measured every 30 sec for 30 min and quantified as the delta relative fluorescence units (RFU), which was calculated as the RFU post-addition minus the 5 averaged RFU pre-addition, per condition.

T1 sequence (P50148 whole entry): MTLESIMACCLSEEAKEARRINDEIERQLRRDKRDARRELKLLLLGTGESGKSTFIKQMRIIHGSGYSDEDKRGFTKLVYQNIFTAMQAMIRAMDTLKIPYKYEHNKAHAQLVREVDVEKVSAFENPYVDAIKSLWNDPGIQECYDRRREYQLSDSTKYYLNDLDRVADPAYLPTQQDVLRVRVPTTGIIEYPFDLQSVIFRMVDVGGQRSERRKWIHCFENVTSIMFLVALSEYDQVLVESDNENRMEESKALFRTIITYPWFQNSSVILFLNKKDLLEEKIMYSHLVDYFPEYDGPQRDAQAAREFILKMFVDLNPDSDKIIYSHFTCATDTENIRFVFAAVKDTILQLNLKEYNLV
T1 sequence (P62873 whole entry partner): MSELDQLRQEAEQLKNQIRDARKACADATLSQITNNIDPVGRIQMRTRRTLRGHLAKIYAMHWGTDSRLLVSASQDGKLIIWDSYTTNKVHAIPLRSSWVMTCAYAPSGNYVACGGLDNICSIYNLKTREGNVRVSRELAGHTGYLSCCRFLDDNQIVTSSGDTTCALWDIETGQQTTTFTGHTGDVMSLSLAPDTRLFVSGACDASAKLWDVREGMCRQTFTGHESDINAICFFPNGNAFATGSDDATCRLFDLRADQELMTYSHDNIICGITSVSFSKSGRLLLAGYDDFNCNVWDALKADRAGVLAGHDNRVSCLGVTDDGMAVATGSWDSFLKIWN
T1 sequence (P63211 2-71 partner limits assumed): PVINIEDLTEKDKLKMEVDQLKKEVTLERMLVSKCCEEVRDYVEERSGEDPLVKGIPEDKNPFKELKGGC

On to `CC(C)C(=O)N1CCN(c2ccc(NC(=O)c3cc4ccccc4o3)cc2Cl)CC1` [Compound 21], for which the “Mean Diff. DMSO vs. compound, Gq (Dunnett's multiple comparisons test)” value in test [1] came to 0.009667. Also, in test [1] (50 μM), the “Gαq engagement by AT1R (BRET sensor)” value is “lack of inhibitory effects”. Also, in test [1] (listed as Comp 21), the “Gq BRET sensor signal (S_Fig.4b), single experiments” value is 0.1945 and 0.171 and 0.2095. The “SOS-mediated mant-GTP binding onto purified K-Ras-Y32A” value in test [2] was “but not on K-Ras-Y32A”.
